Test results as given in PubChem BioAssay AID248 (DTP/NCI, 2004).
Inconclusive results and toxic doses are left out. Cut-off read from the data, not from the text of the source: active = T/C of 150% or more; inactive = T/C below 125%.

Tested on: L1210 leukemia ip in BDF1 mice, survival T/C
Experiment: NCI In Vivo Anticancer Drug Screen. Data for tumor model L1210 Leukemia (intraperitoneal) in B6D2F1 (BDF1) mice
Conditions: endpoint: mean survival time, higher = longer survival
Method in brief: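 Tumor was transplanted into mice, which were then dosed with test compound or vehicle alone. Survival was recorded for each group, and the treated figure was expressed relative to the control figure.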

Measured: T/C

CN(Cc1cnc2nc(N)nc(N)c2n1)c1c(Cl)cc(C(=O)NC(CCC(=O)O)C(=O)O)cc1Cl (stereo not drawn)
active: dose: 3.0 mg/kg/injection, schedule: Q01DX Z (ip), vehicle: carboxymethylcellulose (CMC) 159 % of control | dose: 3.0 mg/kg/injection, schedule: Q01DX Z (ip), vehicle: saline 169 % of control | dose: 5.0 mg/kg/injection, schedule: Q#A X Z (ip), vehicle: methylcellulose (MC) 162 % of control | dose: 6.0 mg/kg/injection, schedule: Q01DX Z (ip), vehicle: carboxymethylcellulose (CMC) 161 % of control | dose: 9.0 mg/kg/injection, schedule: Q01DX Z (ip), vehicle: clinical formulation 157 % of control | dose: 10.0 mg/kg/injection, schedule: Q01DX Z (im), vehicle: alkali diluted with saline 159 % of control | dose: 10.0 mg/kg/injection, schedule: Q01DX Z (ip), vehicle: saline 167 % of control | dose: 10.0 mg/kg/injection, schedule: Q01DX Z (sc), vehicle: alkali diluted with saline 159 % of control | dose: 20.0 mg/kg/injection, schedule: Q01DX007 (ip), vehicle: other 160 % of control | dose: 20.0 mg/kg/injection, schedule: Q01DX009 (ip), vehicle: carboxymethylcellulose (CMC) 153 % of control | dose: 30.0 mg/kg/injection, schedule: Q01DX Z (ip), vehicle: carboxymethylcellulose (CMC) 159 % of control | dose: 40.0 mg/kg/injection, schedule: Q01DX007 (ip), vehicle: other 163 % of control
inactive: dose: 0.05 mg/kg/injection, schedule: Q03HX024 (ip), vehicle: alkali diluted with saline 108 % of control | dose: 0.12 mg/kg/injection, schedule: Q01DX Z (ip), vehicle: saline 103 % of control | dose: 0.2 mg/kg/injection, schedule: Q03HX024 (ip), vehicle: alkali diluted with saline 121 % of control | dose: 0.31 mg/kg/injection, schedule: Q03HX008 (ip), vehicle: carboxymethylcellulose (CMC) 114 % of control | dose: 0.39 mg/kg/injection, schedule: Q03HX024 (ip), vehicle: carboxymethylcellulose (CMC) 111 % of control | dose: 0.5 mg/kg/injection, schedule: Q01DX Z (ip), vehicle: saline 106 % of control | dose: 0.5 mg/kg/injection, schedule: Q01DX Z (sc), vehicle: alkali diluted with saline 102 % of control | dose: 0.6 mg/kg/injection, schedule: Q## X008 (ip), vehicle: alkali diluted with saline 106 % of control | dose: 0.63 mg/kg/injection, schedule: Q03HX008 (ip), vehicle: carboxymethylcellulose (CMC) 119 % of control | dose: 0.78 mg/kg/injection, schedule: Q03HX024 (ip), vehicle: carboxymethylcellulose (CMC) 114 % of control | dose: 1.0 mg/kg/injection, schedule: Q01DX Z (im), vehicle: alkali diluted with saline 107 % of control | dose: 1.0 mg/kg/injection, schedule: Q01DX Z (ip), vehicle: saline 122 % of control | dose: 1.0 mg/kg/injection, schedule: Q01DX Z (sc), vehicle: alkali diluted with saline 95 % of control | dose: 2.5 mg/kg/injection, schedule: Q01DX005 (ip), vehicle: carboxymethylcellulose (CMC) 117 % of control | dose: 2.5 mg/kg/injection, schedule: Q01DX Z (im), vehicle: alkali diluted with saline 102 % of control | dose: 2.5 mg/kg/injection, schedule: Q01DX Z (sc), vehicle: alkali diluted with saline 106 % of control | dose: 4.0 mg/kg/injection, schedule: Q## X008 (ip), vehicle: alkali diluted with saline 104 % of control | dose: 5.0 mg/kg/injection, schedule: Q01DX005 (ip), vehicle: carboxymethylcellulose (CMC) 120 % of control | dose: 5.0 mg/kg/injection, schedule: Q01DX009 (ip), vehicle: carboxymethylcellulose (CMC) 121 % of control | dose: 5.0 mg/kg/injection, schedule: Q01DX009 (sc), vehicle: carboxymethylcellulose (CMC) 115 % of control | dose: 5.0 mg/kg/injection, schedule: Q01DX Z (im), vehicle: alkali diluted with saline 112 % of control | dose: 5.0 mg/kg/injection, schedule: Q01DX Z (oral), vehicle: alkali diluted with saline 120 % of control | dose: 5.0 mg/kg/injection, schedule: Q01DX Z (sc), vehicle: alkali diluted with saline 105 % of control | dose: 6.25 mg/kg/injection, schedule: Q03HX024 (ip), vehicle: carboxymethylcellulose (CMC) 116 % of control | dose: 10.0 mg/kg/injection, schedule: Q01DX006 (iv), vehicle: alkali diluted with saline 106 % of control | dose: 10.0 mg/kg/injection, schedule: Q01DX Z (oral), vehicle: alkali diluted with saline 120 % of control | dose: 12.5 mg/kg/injection, schedule: Q03HX024 (ip), vehicle: carboxymethylcellulose (CMC) 122 % of control | dose: 15.0 mg/kg/injection, schedule: Q## X008 (ip), vehicle: alkali diluted with saline 114 % of control | dose: 20.0 mg/kg/injection, schedule: Q01DX006 (iv), vehicle: alkali diluted with saline 123 % of control | dose: 20.0 mg/kg/injection, schedule: Q01DX Z (oral), vehicle: alkali diluted with saline 115 % of control | dose: 20.0 mg/kg/injection, schedule: Q#A X Z (ip), vehicle: olive oil, sesame oil, peanut oil 116 % of control | dose: 25.0 mg/kg/injection, schedule: Q04DX003 (ip), vehicle: alkali diluted with saline 112 % of control | dose: 25.0 mg/kg/injection, schedule: Q04DX003 (ip), vehicle: carboxymethylcellulose (CMC) 117 % of control | dose: 25.0 mg/kg/injection, schedule: Q## X003 (ip), vehicle: other 106 % of control | dose: 25.0 mg/kg/injection, schedule: Q## X016 (ip), vehicle: other 115 % of control | dose: 30.0 mg/kg/injection, schedule: Q03DX Z (ip), vehicle: methylcellulose (MC) 122 % of control
